Experimental data as given in patent publication US20240382600A1, “BIFUNCTIONAL DEGRADERS COMPRISING A TEAD BINDER” (Novartis AG, priority 2021, published 2024).

Assays:
[1] = target: TEAD1-GFP in HEK293A cells (Homo sapiens (Human), UniProt P28347); assay: TEAD1 protein abundance flow cytometry assay in HEK293A; assay type: cell-based; conditions: HEK293A TEAD1-GFP-CHYSEL-mCherry sensor cells, 24 h, GFP signal by flow cytometry
How it was run: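 HEK293A stably expressing bicistronic TEAD1-GFP-CHYSEL-mCherry treated 24 h at 37° C with 10-point 3-fold series from 10 μM (0.1% DMSO), duplicate. Median GFP of 2,500 single cells by flow cytometry, normalized to parental HEK293A (0%) and DMSO (100%); DC50 from concentration-response curves.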

[2] = system: YAP-dependent transcription in SF268-MCAT_Luc_dox-i-shYAPLevy (Clone 13) cells; assay: YAP reporter gene activity assay (MCAT-Luc), SF268; assay type: cell-based; conditions: SF268 MCAT_Luc, 24 hrs
[3] = system: YAP-dependent transcription in NCI-H2052 Tet-On shYAP_2371 pLenti6 MCAT_Luc cells; assay: YAP reporter gene activity assay (MCAT-Luc), NCI-H2052; assay type: cell-based; conditions: 24 hrs
[4] = system: MKN-45/Ubc-luc cells (unspecific inhibition of luciferase expression or activity); assay: Reporter gene assay specificity control (Ubc-Luc), MKN-45; assay type: cell-based; conditions: MKN-45/Ubc-luc specificity control, 24 hrs
How it was run: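 MKN-45 cells stably carrying a ubiquitin C promoter–firefly luciferase construct, treated the day after seeding with eleven 2-fold compound dilutions (0.1% DMSO final) for 24 hrs at 37° C. Luminescence read 5 min after Steady Glo addition; cell-free background subtracted, as a control for nonspecific luciferase inhibition.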

[5] = system: SF268-MCAT_Luc_dox-i-shYAPLevy (Clone 13) cells; assay: Proliferation assay (resazurin/AlamarBlue), SF268; assay type: cell-based; conditions: SF268, 72 hours
MKN-45/Ubc-luc cells = assay: Proliferation assay (resazurin/AlamarBlue), MKN-45; assay type: cell-based; conditions: MKN-45, 72 hours
How it was run: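 MKN-45 cells carrying constitutive Ubc-driven luciferase reporter, treated the day after seeding with eleven 2-fold dilutions (0.1% DMSO) for 72 h at 37 °C. Viability by resazurin, referenced to day-0 plate; GI50 from % growth (100 none, 0 stasis, −100 kill) and residual viability at top concentration.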

[6] = target: Avi-humanTEAD4^217-434 / Cy5 labeled humanYAP^60-100 (Homo sapiens (Human), UniProt Q15561); assay: In-vitro biochemical TR-FRET assay (TEAD4/YAP); assay type: binding; conditions: 1 h at room temperature
Avi-humanTEAD4^217-434 / Cy5 labeled humanYAP^60-100, sequence (Q15561 217-434): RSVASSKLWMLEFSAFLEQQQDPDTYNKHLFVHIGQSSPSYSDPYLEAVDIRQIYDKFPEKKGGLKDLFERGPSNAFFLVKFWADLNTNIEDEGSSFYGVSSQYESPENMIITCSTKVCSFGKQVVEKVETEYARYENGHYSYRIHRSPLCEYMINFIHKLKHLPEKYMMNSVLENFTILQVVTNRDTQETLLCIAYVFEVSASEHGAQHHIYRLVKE

[7] = system: NCI-H2052 Tet-On shYAP_2371 pLenti6 MCAT_Luc cells; assay: Proliferation assay (resazurin/AlamarBlue), NCI-H2052; assay type: cell-based; conditions: NCI-H2052, 72 hours

TEAD1-GFP in HEK293A cells, sequence (P28347 whole entry): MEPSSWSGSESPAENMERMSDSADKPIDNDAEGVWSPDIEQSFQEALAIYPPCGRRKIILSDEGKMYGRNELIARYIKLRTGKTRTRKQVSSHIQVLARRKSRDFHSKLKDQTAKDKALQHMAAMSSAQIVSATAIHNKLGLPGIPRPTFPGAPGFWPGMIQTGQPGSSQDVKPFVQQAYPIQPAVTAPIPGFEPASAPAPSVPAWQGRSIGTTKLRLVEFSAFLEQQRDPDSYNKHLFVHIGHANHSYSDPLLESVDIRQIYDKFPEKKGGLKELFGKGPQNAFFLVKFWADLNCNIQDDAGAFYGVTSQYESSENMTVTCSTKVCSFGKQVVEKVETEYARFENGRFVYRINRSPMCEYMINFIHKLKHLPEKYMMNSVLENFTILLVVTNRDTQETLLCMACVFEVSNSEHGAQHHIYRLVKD

Row | Compound | DC50 [1] [nM] | IC50 ([2]; Homo sapiens, SF-268) [nM] | IC50 ([3]; Homo sapiens) [nM] | IC50 ([4]; Homo sapiens) [nM] | GI50 ([5]; Homo sapiens, SF-268) [nM] | GI50 (MKN-45/Ubc-luc cells; Homo sapiens) [nM] | IC50 [6] [nM] | GI50 ([7]; Homo sapiens) [nM] | IC50 [2] [nM] | IC50 [3] [nM] | IC50 [4] [nM] | GI50 [5] [nM] | GI50 (MKN-45/Ubc-luc cells) [nM] | GI50 [7] [nM]
1 | COc1ccc(C(N)=O)c(-c2c(Cl)c(F)cc3c2[C@H](C)[C@@](CN[C@H]2CC[C@H](C(=O)NCCCCCc4cccc5c4CN(C4CCC(=O)NC4=O)C5=O)CC2)(c2ccccc2)O3)c1F (stereo partly drawn) [Example 31, 2-((2S,3S,4S)-5-chloro-2-((((1r,4S)-4-((5-(2-(2,6-dioxopiperidin-3-yl)-1-oxoisoindolin-4-yl)pentyl)carbamoyl)cyclohexyl)amino)methyl)-6-fluoro-3-methyl-2-phenyl-2,3-dihydrobenzofuran-4-yl)-3-fluoro-4-methoxybenzamide] | 0.6 | 0.28 | 1.9 | > 20000 | 19 | > 20000 | 1.8 | 6.6 |  |  |  |  |  | 
2 | N-(4-(1-((1S,4r)-4-((((2S,3S,4S)-4-(6-carbamoyl-2-fluoro-3-methoxyphenyl)-5-chloro-6-fluoro-3-methyl-2-phenyl-2,3-dihydrobenzofuran-2-yl)methyl)amino)cyclohexane-1-carbonyl)piperidin-4-yl)butyl)-3-(2,4-dioxotetrahydropyrimidin-1(2H)-yl)-4-methoxybenzamide [Example 18] | 2 |  |  |  |  |  | 3.9 |  | 1.3 | 9.9 | > 2000 | 60 | > 2000 | 27
